Laboratory results: PMC9005681, “Use of AD Informer Set compounds to explore validity of novel targets in Alzheimer's disease pathology” (Alzheimer's & Dementia : Translational Research & Clinical …, 2022)

How the values were obtained:
Test in all cases: PDSP GPCR panel primary binding assays at 10 μM
Settings in all cases: primary assay
[1] = target: T1, cloned human or rodent CNS receptors, channels, and transporters (PDSP panel) (Homo sapiens, UniProt P08173)
T1 construct: expressed in transfected cells
T1 sequence (P08173 1-479): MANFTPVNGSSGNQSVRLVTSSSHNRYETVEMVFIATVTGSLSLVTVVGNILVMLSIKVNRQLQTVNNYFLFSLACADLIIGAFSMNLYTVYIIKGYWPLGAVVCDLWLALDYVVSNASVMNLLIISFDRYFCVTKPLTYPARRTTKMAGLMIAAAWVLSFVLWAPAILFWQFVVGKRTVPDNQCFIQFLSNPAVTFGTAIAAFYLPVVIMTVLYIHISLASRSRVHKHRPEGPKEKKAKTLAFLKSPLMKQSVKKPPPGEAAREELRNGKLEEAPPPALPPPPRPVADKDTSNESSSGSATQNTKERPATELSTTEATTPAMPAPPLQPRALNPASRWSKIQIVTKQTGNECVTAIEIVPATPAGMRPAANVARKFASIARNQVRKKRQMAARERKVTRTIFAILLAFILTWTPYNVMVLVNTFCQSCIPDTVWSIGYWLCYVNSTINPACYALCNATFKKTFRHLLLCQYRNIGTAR
How it was run: (§1)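 Competition binding with radiolabeled standard ligands, single 10 μM concentration, four replicates. Targets showing over 50% displacement were followed up with 11-point titrations in triplicate.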

[2] = target: T2, cloned human or rodent CNS receptors, channels, and transporters (PDSP panel) (Homo sapiens, UniProt P18089)
T2 construct: expressed in transfected cells
T2 sequence (P18089 1-450): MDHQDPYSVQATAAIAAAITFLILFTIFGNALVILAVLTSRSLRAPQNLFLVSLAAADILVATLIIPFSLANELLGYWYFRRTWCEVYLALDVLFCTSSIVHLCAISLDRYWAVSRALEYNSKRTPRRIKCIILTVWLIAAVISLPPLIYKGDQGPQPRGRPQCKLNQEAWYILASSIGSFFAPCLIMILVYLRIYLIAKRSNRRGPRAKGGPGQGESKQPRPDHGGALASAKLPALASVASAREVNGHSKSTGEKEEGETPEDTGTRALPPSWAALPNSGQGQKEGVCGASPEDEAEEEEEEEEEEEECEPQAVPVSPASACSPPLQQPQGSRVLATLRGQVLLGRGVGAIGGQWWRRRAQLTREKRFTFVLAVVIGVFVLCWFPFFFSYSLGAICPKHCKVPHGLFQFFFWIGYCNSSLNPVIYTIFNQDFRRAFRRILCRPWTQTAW
How it was run: as §1

[3] = target: T3, cloned human or rodent CNS receptors, channels, and transporters (PDSP panel) (Homo sapiens, UniProt P20309)
T3 construct: expressed in transfected cells
T3 sequence (P20309 whole entry): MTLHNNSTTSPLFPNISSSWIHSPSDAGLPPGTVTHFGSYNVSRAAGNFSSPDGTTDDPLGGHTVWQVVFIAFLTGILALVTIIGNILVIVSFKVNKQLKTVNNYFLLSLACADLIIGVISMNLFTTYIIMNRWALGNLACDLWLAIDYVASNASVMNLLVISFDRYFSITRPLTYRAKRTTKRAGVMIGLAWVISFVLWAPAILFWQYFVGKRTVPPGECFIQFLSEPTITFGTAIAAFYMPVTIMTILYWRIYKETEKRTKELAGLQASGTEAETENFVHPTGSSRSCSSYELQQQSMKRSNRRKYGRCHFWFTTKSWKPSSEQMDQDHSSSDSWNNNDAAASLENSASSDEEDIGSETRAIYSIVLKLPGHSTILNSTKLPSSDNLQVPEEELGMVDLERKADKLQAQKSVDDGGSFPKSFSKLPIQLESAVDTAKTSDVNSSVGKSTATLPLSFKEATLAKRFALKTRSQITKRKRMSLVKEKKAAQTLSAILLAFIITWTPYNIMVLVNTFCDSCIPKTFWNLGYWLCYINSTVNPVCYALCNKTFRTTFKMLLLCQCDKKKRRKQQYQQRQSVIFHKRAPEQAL
How it was run: as §1

[4] = target: T4, cloned human or rodent CNS receptors, channels, and transporters (PDSP panel) (Homo sapiens, UniProt P25100)
T4 construct: expressed in transfected cells
T4 sequence (P25100 1-572): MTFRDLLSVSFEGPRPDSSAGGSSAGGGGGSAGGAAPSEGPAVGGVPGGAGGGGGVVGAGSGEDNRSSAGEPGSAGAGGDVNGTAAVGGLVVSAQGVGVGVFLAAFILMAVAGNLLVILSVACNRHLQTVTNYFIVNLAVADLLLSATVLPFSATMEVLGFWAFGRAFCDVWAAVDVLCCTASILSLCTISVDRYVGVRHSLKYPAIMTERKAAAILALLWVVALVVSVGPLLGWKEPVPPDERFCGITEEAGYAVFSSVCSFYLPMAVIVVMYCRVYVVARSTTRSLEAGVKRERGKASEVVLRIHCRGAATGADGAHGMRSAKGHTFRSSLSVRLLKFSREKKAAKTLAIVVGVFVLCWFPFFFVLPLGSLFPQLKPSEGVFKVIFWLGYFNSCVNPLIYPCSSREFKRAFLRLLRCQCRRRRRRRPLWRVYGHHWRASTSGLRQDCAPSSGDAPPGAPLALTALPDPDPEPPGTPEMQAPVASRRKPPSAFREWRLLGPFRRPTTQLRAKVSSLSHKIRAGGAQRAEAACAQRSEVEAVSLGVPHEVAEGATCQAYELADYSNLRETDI
How it was run: as §1

[5] = target: T5, cloned human or rodent CNS receptors, channels, and transporters (PDSP panel) (Homo sapiens, UniProt P35368)
T5 construct: expressed in transfected cells
T5 sequence (P35368 1-520): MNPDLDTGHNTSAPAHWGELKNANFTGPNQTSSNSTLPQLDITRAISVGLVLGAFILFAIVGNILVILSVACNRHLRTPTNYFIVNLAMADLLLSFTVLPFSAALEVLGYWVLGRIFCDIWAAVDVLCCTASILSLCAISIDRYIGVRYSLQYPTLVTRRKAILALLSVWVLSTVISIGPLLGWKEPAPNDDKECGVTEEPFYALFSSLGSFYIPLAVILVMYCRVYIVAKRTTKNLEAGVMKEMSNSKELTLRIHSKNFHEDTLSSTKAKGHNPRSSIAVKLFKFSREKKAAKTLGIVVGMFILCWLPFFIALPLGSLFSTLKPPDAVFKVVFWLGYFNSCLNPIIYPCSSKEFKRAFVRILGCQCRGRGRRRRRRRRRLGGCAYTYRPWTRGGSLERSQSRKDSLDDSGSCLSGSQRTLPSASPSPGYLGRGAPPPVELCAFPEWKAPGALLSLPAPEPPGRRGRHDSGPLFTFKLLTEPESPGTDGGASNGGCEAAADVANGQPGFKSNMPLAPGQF
How it was run: as §1

Compound: CCC(=O)N1CCC(NC(=O)Nc2ccc(OC(F)(F)F)cc2)CC1 [UNC10302681A, TPPU]
- Mean % ([1]; M4, mean inhibition): 27.22%
- Inhibition 1 ([1]; M4, replicate 1): 20.33%
- Inhibition 2 ([1]; M4, replicate 2): 6.55%
- Inhibition 3 ([1]; M4, replicate 3): 30.66%
- Inhibition 4 ([1]; M4, replicate 4): 51.34%
- Mean % ([2]; Alpha2B, mean inhibition): 6.32%
- Inhibition 1 ([2]; Alpha2B, replicate 1): 1.27%
- Inhibition 2 ([2]; Alpha2B, replicate 2): 8.98%
- Inhibition 3 ([2]; Alpha2B, replicate 3): 5.54%
- Inhibition 4 ([2]; Alpha2B, replicate 4): 9.47%
- Mean % ([3]; M3, mean inhibition): 3.57%
- Inhibition 1 ([3]; M3, replicate 1): 4.75%
- Inhibition 2 ([3]; M3, replicate 2): 5.92%
- Inhibition 3 ([3]; M3, replicate 3): 13.87%
- Inhibition 4 ([3]; M3, replicate 4): -10.26%
- Mean % ([4]; Alpha1D, mean inhibition): -10.94%
- Inhibition 1 ([4]; Alpha1D, replicate 1): -5.01%
- Inhibition 2 ([4]; Alpha1D, replicate 2): -6%
- Inhibition 3 ([4]; Alpha1D, replicate 3): -20.78%
- Inhibition 4 ([4]; Alpha1D, replicate 4): -11.97%
- Mean % ([5]; Alpha1B, mean inhibition): 7.22%
- Inhibition 1 ([5]; Alpha1B, replicate 1): 0.2%
- Inhibition 2 ([5]; Alpha1B, replicate 2): 16.24%
- Inhibition 3 ([5]; Alpha1B, replicate 3): 7.3%
- Inhibition 4 ([5]; Alpha1B, replicate 4): 5.13%

Compound: c1cn2cc(-c3ccc4cn[nH]c4c3)nc(Nc3ccc(N4CCOCC4)cc3)c2n1 [UNC10302678A, Entospletinib (GS-9973)]
- Inhibition 1 ([1]; Receptor M4, 10 μM): 35.72%
- Inhibition 2 ([1]; Receptor M4, 10 μM): 0.8%
- Inhibition 3 ([1]; Receptor M4, 10 μM): 6.09%
- Inhibition 4 ([1]; Receptor M4, 10 μM): 23.54%
- Mean % ([1]; Receptor M4, 10 μM, mean of Inhibition 1-4): 16.54%
- Inhibition 1 ([2]; Receptor Alpha2B, 10 μM): 1.15%
- Inhibition 2 ([2]; Receptor Alpha2B, 10 μM): 1.83%
- Inhibition 3 ([2]; Receptor Alpha2B, 10 μM): -12.73%
- Inhibition 4 ([2]; Receptor Alpha2B, 10 μM): -4.05%
- Mean % ([2]; Receptor Alpha2B, 10 μM, mean of Inhibition 1-4): -3.45%
- Inhibition 1 ([3]; Receptor M3, 10 μM): 13.32%
- Inhibition 2 ([3]; Receptor M3, 10 μM): 23.97%
- Inhibition 3 ([3]; Receptor M3, 10 μM): 7.51%
- Inhibition 4 ([3]; Receptor M3, 10 μM): 7.37%
- Mean % ([3]; Receptor M3, 10 μM, mean of Inhibition 1-4): 13.04%
- Inhibition 1 ([4]; Receptor Alpha1D, 10 μM): -9.56%
- Inhibition 2 ([4]; Receptor Alpha1D, 10 μM): -12.54%
- Inhibition 3 ([4]; Receptor Alpha1D, 10 μM): -12.26%
- Inhibition 4 ([4]; Receptor Alpha1D, 10 μM): -10.27%
- Mean % ([4]; Receptor Alpha1D, 10 μM, mean of Inhibition 1-4): -11.16%
- Inhibition 1 ([5]; Receptor Alpha1B, 10 μM): 3.98%
- Inhibition 2 ([5]; Receptor Alpha1B, 10 μM): -28.67%
- Inhibition 3 ([5]; Receptor Alpha1B, 10 μM): -18.82%
- Inhibition 4 ([5]; Receptor Alpha1B, 10 μM): -2.78%
- Mean % ([5]; Receptor Alpha1B, 10 μM, mean of Inhibition 1-4): -11.57%

Compound: CNc1nc(C)nc(N[C@H]2CCC[C@@H](C(=O)NCc3ccc(C#N)cc3C(F)(F)F)C2)n1 [UNC10302679A, GSK2256294A]
- Mean % ([1]; M4, mean inhibition): 14.93%
- Inhibition 1 ([1]; M4, replicate 1): 10.45%
- Inhibition 2 ([1]; M4, replicate 2): 4.02%
- Inhibition 3 ([1]; M4, replicate 3): 7.46%
- Inhibition 4 ([1]; M4, replicate 4): 37.78%
- Mean % ([2]; Alpha2B, mean inhibition): 9.85%
- Inhibition 1 ([2]; Alpha2B, replicate 1): 12.19%
- Inhibition 2 ([2]; Alpha2B, replicate 2): 4.49%
- Inhibition 3 ([2]; Alpha2B, replicate 3): 0.5%
- Inhibition 4 ([2]; Alpha2B, replicate 4): 22.22%
- Mean % ([3]; M3, mean inhibition): 1.63%
- Inhibition 1 ([3]; M3, replicate 1): 7.99%
- Inhibition 2 ([3]; M3, replicate 2): 2.67%
- Inhibition 3 ([3]; M3, replicate 3): -7.08%
- Inhibition 4 ([3]; M3, replicate 4): 2.95%
- Mean % ([4]; Alpha1D, mean inhibition): -12.86%
- Inhibition 1 ([4]; Alpha1D, replicate 1): -4.16%
- Inhibition 2 ([4]; Alpha1D, replicate 2): -21.92%
- Inhibition 3 ([4]; Alpha1D, replicate 3): -15.38%
- Inhibition 4 ([4]; Alpha1D, replicate 4): -9.98%
- Mean % ([5]; Alpha1B, mean inhibition): -0.37%
- Inhibition 1 ([5]; Alpha1B, replicate 1): -2.21%
- Inhibition 2 ([5]; Alpha1B, replicate 2): 6.62%
- Inhibition 3 ([5]; Alpha1B, replicate 3): -2.78%
- Inhibition 4 ([5]; Alpha1B, replicate 4): -3.12%

Compound: MDL 28170 [UNC10302675A]
- Mean % ([1]; M4, mean inhibition): 7.01%
- Inhibition 1 ([1]; M4, replicate 1): 5.86%
- Inhibition 2 ([1]; M4, replicate 2): -14.36%
- Inhibition 3 ([1]; M4, replicate 3): 13.67%
- Inhibition 4 ([1]; M4, replicate 4): 22.85%
- Mean % ([2]; Alpha2B, mean inhibition): 5.87%
- Inhibition 1 ([2]; Alpha2B, replicate 1): 22.44%
- Inhibition 2 ([2]; Alpha2B, replicate 2): -15.29%
- Inhibition 3 ([2]; Alpha2B, replicate 3): -0.28%
- Inhibition 4 ([2]; Alpha2B, replicate 4): 16.62%
- Mean % ([3]; M3, mean inhibition): 3.62%
- Inhibition 1 ([3]; M3, replicate 1): 10.69%
- Inhibition 2 ([3]; M3, replicate 2): 6.89%
- Inhibition 3 ([3]; M3, replicate 3): 8.89%
- Inhibition 4 ([3]; M3, replicate 4): -11.99%
- Mean % ([4]; Alpha1D, mean inhibition): 0.92%
- Inhibition 1 ([4]; Alpha1D, replicate 1): 9.77%
- Inhibition 2 ([4]; Alpha1D, replicate 2): 7.35%
- Inhibition 3 ([4]; Alpha1D, replicate 3): -4.01%
- Inhibition 4 ([4]; Alpha1D, replicate 4): -9.41%
- Mean % ([5]; Alpha1B, mean inhibition): -5.99%
- Inhibition 1 ([5]; Alpha1B, replicate 1): -0.72%
- Inhibition 2 ([5]; Alpha1B, replicate 2): -4.38%
- Inhibition 3 ([5]; Alpha1B, replicate 3): -14.01%
- Inhibition 4 ([5]; Alpha1B, replicate 4): -4.84%
